# According to patent US9133128B2, “Pyrazole derivatives as cannabinoid receptor 1 antagonists” (Research Triangle Institute, priority 2011, dated 2015):
# Where two headings read alike, the source gives them in different places.
# Tests used:
# CB1 [1] = biological target: T1, CB1 (Homo sapiens, UniProt P21554); assay: CB1 activated Gαq16-coupled intracellular calcium mobilization assay in CHO-K1 cells (apparent affinity Ke); type: cell-based; details: calcium mobilization
# T1 construct: expressed in transfected cells; host or cells: CHO-K1 (membranes)
# CB1 [2] = biological target: T1, CB1; assay: Displacement of [3H]CP55940 in membranes of CHO-K1 cells over-expressing CB1; type: binding; details: for Binding Selectivity using CP55940 Displacement: CB2 Ki over CB1 Ki; for Ki: read-out: Ki (nM) v. [3H] CP55940 at CB1
# CB2 = biological target: T2, CB2 (Homo sapiens, UniProt P34972); assay: Displacement of [3H]CP55940 in membranes of CHO-K1 cells over-expressing CB2; type: binding
# T2 construct: expressed in transfected cells; host or cells: CHO-K1 (membranes)
# Description: All compounds were characterized by H^1 NMR and evaluated using a calcium mobilization assay. Each compound was pharmacologically characterized using a functional fluorescent CB1 activated Gαq16-coupled intracellular calcium mobilization assay in CHO-K1 cells as has been previously described and apparent affinity (Ke) values were determined. See Zhang et al., J. Med. Chem. 2010, 53, 7048, which is incorporated herein by reference. Further characterization of select compounds was performed using radioligand displacement of [3H]1 and equilibrium dissociation constant (Ki) values were determined. Selectivity of these compounds at CB1 versus CB2 was also determined by obtaining Ki values at either receptor using displacement of [3H]CP55940 in membranes of CHO-K1 cells over-expressing either receptor. Data reported are average values from 3-6 measurements.
# Select compounds were chosen for further study in radioligand displacement assays using radiolabeled rimonobant, SR141716 ([^3H]1). […] Selectivity against the CB2 receptor was determined by comparing the compound displacement of radiolabeled CP55940, which is a cannabinoid known to act as a full agonist at both CB1 and CB2 receptors. In general, tested compounds were selective for CB1 over CB2.
# [3] = Table 2, apparent affinity, read-out: Ke CB1
# [4] = Table 4, read-out: Ke (nM) at CB1
# [5] = Table 5, read-out: Ke (nM) at CB1
# [6] = Table 5, read-out: Ki (nM) v. [3H] CP55940 at CB2
# [7] = Table 4, read-out: Ki (nM) v. [3H] CP55940 at CB2
# T1 sequence (P21554 whole entry): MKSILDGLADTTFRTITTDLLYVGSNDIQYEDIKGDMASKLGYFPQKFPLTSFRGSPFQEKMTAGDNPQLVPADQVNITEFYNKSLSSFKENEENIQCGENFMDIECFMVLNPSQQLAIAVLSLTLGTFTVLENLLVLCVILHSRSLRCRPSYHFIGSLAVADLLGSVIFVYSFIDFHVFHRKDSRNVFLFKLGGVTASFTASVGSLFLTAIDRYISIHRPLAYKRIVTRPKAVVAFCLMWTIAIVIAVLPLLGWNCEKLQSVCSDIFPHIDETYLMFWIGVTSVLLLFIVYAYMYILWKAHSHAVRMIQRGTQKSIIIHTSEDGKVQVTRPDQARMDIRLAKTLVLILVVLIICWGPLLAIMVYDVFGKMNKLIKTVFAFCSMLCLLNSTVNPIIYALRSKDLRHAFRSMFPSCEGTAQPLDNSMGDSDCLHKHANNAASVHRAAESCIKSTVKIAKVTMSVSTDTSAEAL
# T2 sequence (P34972 whole entry): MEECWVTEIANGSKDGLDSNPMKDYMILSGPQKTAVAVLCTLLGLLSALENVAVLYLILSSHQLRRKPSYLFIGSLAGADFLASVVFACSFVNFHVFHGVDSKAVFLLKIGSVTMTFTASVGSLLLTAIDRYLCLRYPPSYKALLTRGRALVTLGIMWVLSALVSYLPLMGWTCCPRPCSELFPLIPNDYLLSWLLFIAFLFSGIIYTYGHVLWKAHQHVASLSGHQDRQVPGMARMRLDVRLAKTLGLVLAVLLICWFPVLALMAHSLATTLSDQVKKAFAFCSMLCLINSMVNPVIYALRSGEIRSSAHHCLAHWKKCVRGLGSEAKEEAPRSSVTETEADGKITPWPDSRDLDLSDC
molecule,measurement,setting,value
"Cc1c(C(=O)N[C@H]2CC[C@H](NS(N)(=O)=O)CC2)nn(-c2ccc(Cl)cc2Cl)c1-c1ccc(Cl)cc1 [5-(4-chlorophenyl)-1-(2,4-dichlorophenyl)-4-methyl-N-[(1r,4r)-4-(sulfamoylamino)cyclohexyl]-1H-pyrazole-3-carboxamide]",Kb,CB1 [1]; [3],9430 nM
"Cc1c(C(=O)NCCCCCCCNS(N)(=O)=O)nn(-c2ccc(Cl)cc2Cl)c1-c1ccc(Cl)cc1 [5-(4-chlorophenyl)-1-(2,4-dichlorophenyl)-4-methyl-N-[7-(sulfamoylamino)heptyl]-1H-pyrazole-3-carboxamide]",Kb,CB1 [1]; [3],304 nM
"CCCNC(=O)NC1CCN(C(=O)c2nn(-c3ccc(Cl)cc3Cl)c(-c3ccc(Cl)cc3)c2C)CC1 [Cl, H, NHC(O)NHC3H7, 1-(1-{[5-(4-Chlorophenyl)-1-(2,4-dichlorophenyl)-4-methyl-1H-pyrazol-3-yl]carbonyl}piperidin-4-yl)-3-propylurea]",Kb,CB1 [1]; [4],546 nM
"CCCCOC(=O)N1CCC(NC(=O)c2nn(-c3ccc(Cl)cc3Cl)c(-c3ccc(Cl)cc3)c2C)CC1 [OC4H9, Butyl 4-[5-(4-chlorophenyl)-1-(2,4-dichlorophenyl)-4-methyl-1H-pyrazole-3-amido]piperidine-1-carboxylate]",Kb,CB1 [1]; [5],88 nM
"Cc1c(C(=O)NC2CCN(C(=O)NC(C)C)CC2)nn(-c2ccc(Cl)cc2Cl)c1-c1ccc(Cl)cc1 [NH(isopropyl), 4-C-5-(4-Chlorophenyl)-1-(2,4-dichlorophenyl)-4-methyl-1H-pyrazole-3-1-N-(propan-2-yl)piperidine-1,4-diamido]",Binding Selectivity using CP55940 Displacement,CB1 [2]; Table 5,175.7
same,Ki,CB1 [2]; Table 5,97.9 nM
same,Ki,CB2; [6],17200 nM
"Cc1c(C(=O)NCCCN(C)CCCNS(C)(=O)=O)nn(-c2ccc(Cl)cc2Cl)c1-c1ccc(Cl)cc1 [5-(4-chlorophenyl)-1-(2,4-dichlorophenyl)-N-{3-[(3-methanesulfonamidopropyl)(methyl)amino]propyl}-4-methyl-1H-pyrazole-3-carboxamide]",Kb,CB1 [1]; [3],5340 nM
"CCCCNC(=O)NC1CCN(C(=O)c2nn(-c3ccc(Cl)cc3Cl)c(-c3ccc(Cl)cc3)c2C)CC1 [Cl, H, NHC(O)NHC4H9, 3-Butyl-1-(1-{[5-(4-chlorophenyl)-1-(2,4-dichlorophenyl)-4-methyl-1H-pyrazol-3-yl]carbonyl}piperidin-4-yl)urea]",Kb,CB1 [1]; [4],395 nM
"CCNC(=O)N1CCC(NC(=O)c2nn(-c3ccc(Cl)cc3Cl)c(-c3ccc(Cl)cc3)c2C)CC1 [NHC2H5, 4-C-5-(4-chlorophenyl)-1-(2,4-dichlorophenyl)-4-methyl-1H-pyrazole-3-1-N-ethylpiperidine-1,4-diamido]",Binding Selectivity using CP55940 Displacement,CB1 [2]; Table 5,79.0
same,Ki,CB1 [2]; Table 5,167 nM
same,Ki,CB2; [6],13200 nM
"Cc1c(C(=O)N2CCC(N)CC2)nn(-c2ccc(Cl)cc2Cl)c1-c1ccc(Cl)cc1 [Cl, H, NH2, 1-{[5-(4-Chlorophenyl)-1-(2,4-dichlorophenyl)-4-methyl-1H-pyrazol-3-yl]carbonyl}piperidin-4-amine]",Kb,CB1 [1]; [4],1920 nM
"Cc1c(C(=O)NC2CCN(C(N)=O)CC2)nn(-c2ccc(Cl)cc2Cl)c1-c1ccc(Cl)cc1 [NH2, 4-C-5-(4-chlorophenyl)-1-(2,4-dichlorophenyl)-4-methyl-1H-pyrazole-3-piperidine-1,4-diamido]",Kb,CB1 [1]; [5],4100 nM
"Cc1c(C(=O)N2CCC(NC(=O)OC(C)(C)C)CC2)nn(-c2ccc(Cl)cc2Cl)c1-c1ccc(Cl)cc1 [Cl, H, NHC(O)O(t-butyl), tert-Butyl N-(1-{[5-(4-chlorophenyl)-1-(2,4-dichlorophenyl)-4-methyl-1H-pyrazol-3-yl]carbonyl}piperidin-4-yl)carbamate]",Kb,CB1 [1]; [4],209 nM
Cc1c(C(=O)NCC2CCC(CNS(N)(=O)=O)CC2)nn(-c2ccc(Cl)cc2Cl)c1-c1ccc(Cl)cc1 (mixture of isomers),Ki,"CB2; Table 3, radioligand [3H]CP55940, read-out: Ki(μM) CB2 CP55940",1790 nM
"CCCCCCNC(=O)NC1(c2ccccc2)CCN(C(=O)c2nn(-c3ccc(Cl)cc3Cl)c(-c3ccc(Cl)cc3)c2C)CC1 [Cl, phenyl, NHC(O)NH(C6H13), 1-(1-{[5-(4-chlorophenyl)-1-(2,4-dichlorophenyl)-4-methyl-1H-pyrazol-3-yl]carbonyl}-4-phenylpiperidin-4-yl)-3-hexylurea]",Binding Selectivity using CP55940 Displacement,CB1 [2]; Table 4,62.2
same,Ki,CB1 [2]; Table 4,38.8 nM
same,Ki,CB2; [7],2410 nM
"Cc1c(C(=O)N2CCC(O)(c3ccccc3)CC2)nn(-c2ccc(Cl)cc2Cl)c1-c1ccc(C#N)cc1 [CN, phenyl, OH, 4-[1-(2,4-dichlorophenyl)-3-[(4-hydroxy-4-phenylpiperidin-1-yl)carbonyl]-4-methyl-1H-pyrazol-5-yl]benzonitrile]",Kb,CB1 [1]; [4],907 nM
"Cc1c(C(=O)NCc2cccc(CNS(C)(=O)=O)c2)nn(-c2ccc(Cl)cc2Cl)c1-c1ccc(Cl)cc1 [5-(4-chlorophenyl)-1-(2,4-dichlorophenyl)-N-{[3-(methanesulfonamidomethyl)phenyl]methyl}-4-methyl-1H-pyrazole-3-carboxamide]",Kb,CB1 [1]; [3],2830 nM
"CCCCNC(=O)N1CCC(NC(=O)c2nn(-c3ccc(Cl)cc3Cl)c(-c3ccc(Cl)cc3)c2C)CC1 [NH(n-butyl), 1-N-Butyl-4-C-5-(4-chlorophenyl)-1-(2,4-dichlorophenyl)-4-methyl-1H-pyrazole-3-piperidine-1,4-diamido]",Ki,CB1 [2]; Table 5,149 nM
same,Ki,CB2; [6],> 20000 nM
"4-C-5-(4-Chlorophenyl)-1-(2,4-dichlorophenyl)-4-methyl-1H-pyrazole-3-1-N-propylpiperidine-1,4-diamido [NH(n-propyl)]",Kb,CB1 [1]; [5],66.5 nM
"CCNC(=O)NC1(c2ccccc2)CCN(C(=O)c2nn(-c3ccc(Cl)cc3Cl)c(-c3ccc(Cl)cc3)c2C)CC1 [Cl, phenyl, NHC(O)NHCH2CH3, 1-(1-{[5-(4-chlorophenyl)-1-(2,4-dichlorophenyl)-4-methyl-1H-pyrazol-3-yl]carbonyl}-4-phenylpiperidin-4-yl)-3-ethylurea]",Binding Selectivity using CP55940 Displacement,CB1 [2]; Table 4,12.1
same,Ki,CB1 [2]; Table 4,15 nM
same,Ki,CB2; [7],182 nM
"Cc1c(C(=O)N[C@H]2CC[C@H](NS(C)(=O)=O)CC2)nn(-c2ccc(Cl)cc2Cl)c1-c1ccc(Cl)cc1 [5-(4-chlorophenyl)-1-(2,4-dichlorophenyl)-4-methyl-N-[(1r,4r)-4-methanesulfonamido-cyclohexyl]-1H-pyrazole-3-carboxamide]",Kb,CB1 [1]; [3],>10000 nM
"Cc1c(C(=O)N2CCC(NC(=O)NC3CCCCC3)(c3ccccc3)CC2)nn(-c2ccc(Cl)cc2Cl)c1-c1ccc(Cl)cc1 [Cl, phenyl, NHC(O)NH(cyclohexyl), 3-(1-{[5-(4-chlorophenyl)-1-(2,4-dichlorophenyl)-4-methyl-1H-pyrazol-3-yl]carbonyl}-4-phenylpiperidin-4-yl)-1-cyclohexylurea]",Binding Selectivity using CP55940 Displacement,CB1 [2]; Table 4,25.3
same,Ki,CB1 [2]; Table 4,792 nM
same,Ki,CB2; [7],≥ 20000 nM
"CCCNC(=O)NC1(c2ccccc2)CCN(C(=O)c2nn(-c3ccc(Cl)cc3Cl)c(-c3ccc(Cl)cc3)c2C)CC1 [Cl, phenyl, NHC(O)NHC3H7, 1-(1-{[5-(4-chlorophenyl)-1-(2,4-dichlorophenyl)-4-methyl-1H-pyrazol-3-yl]carbonyl}-4-phenylpiperidin-4-yl)-3-propylurea]",Binding Selectivity using CP55940 Displacement,CB1 [2]; Table 4,38.7
same,Ki,CB1 [2]; Table 4,7.57 nM
same,Ki,CB2; [7],293 nM
"Cc1c(C(=O)N2CCC(NS(C)(=O)=O)CC2)nn(-c2ccc(Cl)cc2Cl)c1-c1ccc(Cl)cc1 [Cl, H, NHS(O)2CH3, N-(1-{[5-(4-Chlorophenyl)-1-(2,4-dichlorophenyl)-4-methyl-1H-pyrazol-3-yl]carbonyl}piperidin-4-yl)methanesulfonamide]",Kb,CB1 [1]; [4],146 nM
"Cc1c(C(=O)NCc2ccc(CNS(N)(=O)=O)cc2)nn(-c2ccc(Cl)cc2Cl)c1-c1ccc(Cl)cc1 [5-(4-chlorophenyl)-1-(2,4-dichlorophenyl)-4-methyl-N-({4-[(sulfamoylamino)methyl]phenyl}methyl)-1H-pyrazole-3-carboxamide]",Kb,CB1 [1]; [3],376 nM
"Cc1c(C(=O)NCc2cccc(CNS(N)(=O)=O)c2)nn(-c2ccc(Cl)cc2Cl)c1-c1ccc(Cl)cc1 [5-(4-chlorophenyl)-1-(2,4-dichlorophenyl)-4-methyl-N-({3-[(sulfamoylamino)methyl]phenyl}methyl)-1H-pyrazole-3-carboxamide]",Kb,CB1 [1]; [3],4200 nM
"Cc1c(C(=O)NCc2ccc(CNS(C)(=O)=O)cc2)nn(-c2ccc(Cl)cc2Cl)c1-c1ccc(Cl)cc1 [5-(4-chlorophenyl)-1-(2,4-dichlorophenyl)-N-{[4-(methanesulfonamidomethyl)phenyl]methyl}-4-methyl-1H-pyrazole-3-carboxamide]",Kb,CB1 [1]; [3],2930 nM
"Cc1c(C(=O)N2CCC(NC(=O)NC(C)C)CC2)nn(-c2ccc(Cl)cc2Cl)c1-c1ccc(Cl)cc1 [Cl, H, NHC(O)NHCH(CH3)2, 1-(1-{[5-(4-Chlorophenyl)-1-(2,4-dichlorophenyl)-4-methyl-1H-pyrazol-3-yl]carbonyl}piperidin-4-yl)-3-(propan-2-yl)urea]",Kb,CB1 [1]; [4],608 nM
